Measurements from the supplement of paper PMC13207355.

Assays:
Conditions in all cases: exposure time: 72 h
E13 [1] = patient-derived glioblastoma stem cells of classical subtype; test: surviving fraction (nuclei count normalised to DMSO); higher = more cells surviving (less toxic)
E21 [2] = patient-derived glioblastoma stem cells of mesenchymal subtype; test: as above
E28 [3] = patient-derived glioblastoma stem cells of classical subtype; test: as above
E31 [4] = patient-derived glioblastoma stem cells of proneural subtype; test: as above
E34 [5] = patient-derived glioblastoma stem cells of proneural subtype; test: as above
E57 [6] = patient-derived glioblastoma stem cells of mesenchymal subtype; test: as above
FT3469 [7] = normal neural stem cell line; test: as above
E13 [8] = test: phenotypic distance (Euclidean, principal components) from DMSO controls (arbitrary units); higher = stronger morphological change
E21 [9] = test: as above
E28 [10] = test: as above
E31 [11] = test: as above
E34 [12] = test: as above
E57 [13] = test: as above
FT3469 [14] = test: as above
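Throughout, for phenotypic distance (Euclidean, principal components) from DMSO controls: cell Painting imaging in 384-well plates, CellProfiler features reduced to at least 20 principal components, Euclidean distance versus same-plate DMSO vehicle wells (0.1% v/v), median over six images per well.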
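Throughout, for surviving fraction (nuclei count normalised to DMSO): nuclei counted by high-content imaging of Hoechst-stained cells in laminin-coated 384-well plates, relative to 0.1% DMSO vehicle wells, with staurosporine as cell-death control.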

C[C@@H](Oc1cc(-c2cnn(C3CCNCC3)c2)cnc1N)c1c(Cl)ccc(F)c1Cl [Crizotinib]
Conditions	phenotypic distance	surviving fraction
E13 [1], 4.1 nM	–	0.978
E13 [1], 12.3 nM	–	0.948
E13 [1], 37 nM	–	0.972
E13 [1], 111.1 nM	–	0.863
E13 [1], 333.3 nM	–	0.881
E13 [1], 1000 nM	–	0.849
E13 [1], 3000 nM	–	0.482
E13 [8], 4.1 nM	0.499	–
E13 [8], 12.3 nM	0.452	–
E13 [8], 37 nM	0.936	–
E13 [8], 111.1 nM	0.626	–
E13 [8], 333.3 nM	0.58	–
E13 [8], 1000 nM	1.09	–
E13 [8], 3000 nM	3.75	–
E21 [2], 4.1 nM	–	0.907
E21 [2], 12.3 nM	–	0.826
E21 [2], 37 nM	–	1.02
E21 [2], 111.1 nM	–	0.883
E21 [2], 333.3 nM	–	0.986
E21 [2], 1000 nM	–	0.78
E21 [2], 3000 nM	–	0.472
E21 [9], 4.1 nM	0.599	–
E21 [9], 12.3 nM	1.58	–
E21 [9], 37 nM	0.706	–
E21 [9], 111.1 nM	0.783	–
E21 [9], 333.3 nM	0.751	–
E21 [9], 1000 nM	1.37	–
E21 [9], 3000 nM	3.3	–
E28 [3], 4.1 nM	–	1.02
E28 [3], 12.3 nM	–	0.941
E28 [3], 37 nM	–	0.83
E28 [3], 111.1 nM	–	0.923
E28 [3], 333.3 nM	–	0.96
E28 [3], 1000 nM	–	0.837
E28 [3], 3000 nM	–	0.326
E28 [10], 4.1 nM	0.935	–
E28 [10], 12.3 nM	0.741	–
E28 [10], 37 nM	1.91	–
E28 [10], 111.1 nM	0.725	–
E28 [10], 333.3 nM	0.457	–
E28 [10], 1000 nM	0.886	–
E28 [10], 3000 nM	2.74	–
E31 [4], 4.1 nM	–	0.998
E31 [4], 12.3 nM	–	1.05
E31 [4], 37 nM	–	0.891
E31 [4], 111.1 nM	–	0.884
E31 [4], 333.3 nM	–	1.13
E31 [4], 1000 nM	–	0.96
E31 [4], 3000 nM	–	0.472
E31 [11], 4.1 nM	0.339	–
E31 [11], 12.3 nM	0.524	–
E31 [11], 37 nM	0.734	–
E31 [11], 111.1 nM	0.728	–
E31 [11], 333.3 nM	0.762	–
E31 [11], 1000 nM	1.01	–
E31 [11], 3000 nM	3.13	–
E34 [5], 4.1 nM	–	0.973
E34 [5], 12.3 nM	–	0.985
E34 [5], 37 nM	–	0.786
E34 [5], 111.1 nM	–	1.1
E34 [5], 333.3 nM	–	0.933
E34 [5], 1000 nM	–	0.88
E34 [5], 3000 nM	–	0.565
E34 [12], 4.1 nM	0.825	–
E34 [12], 12.3 nM	0.797	–
E34 [12], 37 nM	0.989	–
E34 [12], 111.1 nM	0.934	–
E34 [12], 333.3 nM	0.571	–
E34 [12], 1000 nM	1.16	–
E34 [12], 3000 nM	2.7	–
E57 [6], 4.1 nM	–	1.03
E57 [6], 12.3 nM	–	0.937
E57 [6], 37 nM	–	1.01
E57 [6], 111.1 nM	–	0.957
E57 [6], 333.3 nM	–	1.04
E57 [6], 1000 nM	–	0.857
E57 [6], 3000 nM	–	0.477
E57 [13], 4.1 nM	0.221	–
E57 [13], 12.3 nM	1.2	–
E57 [13], 37 nM	0.43	–
E57 [13], 111.1 nM	0.517	–
E57 [13], 333.3 nM	0.355	–
E57 [13], 1000 nM	0.883	–
E57 [13], 3000 nM	4.09	–
FT3469 [7], 4.1 nM	–	0.854
FT3469 [7], 12.3 nM	–	1.03
FT3469 [7], 37 nM	–	1.09
FT3469 [7], 111.1 nM	–	1.09
FT3469 [7], 333.3 nM	–	0.941
FT3469 [7], 1000 nM	–	0.891
FT3469 [7], 3000 nM	–	0.574
FT3469 [14], 4.1 nM	0.558	–
FT3469 [14], 12.3 nM	0.592	–
FT3469 [14], 37 nM	0.496	–
FT3469 [14], 111.1 nM	0.573	–
FT3469 [14], 333.3 nM	0.58	–
FT3469 [14], 1000 nM	0.774	–
FT3469 [14], 3000 nM	2.09	–

CC[C@@]1(O)C(=O)OCc2c1cc1n(c2=O)Cc2cc3cc(O)ccc3nc2-1 [Hydroxy Camptothecine]
Conditions	phenotypic distance	surviving fraction
E13 [1], 4.1 nM	–	0.295
E13 [1], 12.3 nM	–	0.298
E13 [1], 37 nM	–	0.269
E13 [1], 111.1 nM	–	0.241
E13 [1], 333.3 nM	–	0.178
E13 [1], 1000 nM	–	0.197
E13 [1], 3000 nM	–	0.141
E13 [8], 4.1 nM	5.76	–
E13 [8], 12.3 nM	6.4	–
E13 [8], 37 nM	5.69	–
E13 [8], 111.1 nM	6.9	–
E13 [8], 333.3 nM	6.25	–
E13 [8], 1000 nM	6.56	–
E13 [8], 3000 nM	6.55	–
E21 [2], 4.1 nM	–	0.133
E21 [2], 12.3 nM	–	0.115
E21 [2], 37 nM	–	0.12
E21 [2], 111.1 nM	–	0.161
E21 [2], 333.3 nM	–	0.135
E21 [2], 1000 nM	–	0.106
E21 [2], 3000 nM	–	0.119
E21 [9], 4.1 nM	4.52	–
E21 [9], 12.3 nM	4.56	–
E21 [9], 37 nM	5.14	–
E21 [9], 111.1 nM	4.89	–
E21 [9], 333.3 nM	4.81	–
E21 [9], 1000 nM	5.63	–
E21 [9], 3000 nM	5.74	–
E28 [3], 4.1 nM	–	0.341
E28 [3], 12.3 nM	–	0.331
E28 [3], 37 nM	–	0.313
E28 [3], 111.1 nM	–	0.331
E28 [3], 333.3 nM	–	0.268
E28 [3], 1000 nM	–	0.219
E28 [3], 3000 nM	–	0.151
E28 [10], 4.1 nM	3	–
E28 [10], 12.3 nM	2.79	–
E28 [10], 37 nM	3.94	–
E28 [10], 111.1 nM	2.28	–
E28 [10], 333.3 nM	3.33	–
E28 [10], 1000 nM	3.32	–
E28 [10], 3000 nM	3.06	–
E31 [4], 4.1 nM	–	0.159
E31 [4], 12.3 nM	–	0.166
E31 [4], 37 nM	–	0.174
E31 [4], 111.1 nM	–	0.231
E31 [4], 333.3 nM	–	0.223
E31 [4], 1000 nM	–	0.203
E31 [4], 3000 nM	–	0.201
E31 [11], 4.1 nM	3.54	–
E31 [11], 12.3 nM	2.94	–
E31 [11], 37 nM	3.69	–
E31 [11], 111.1 nM	2.96	–
E31 [11], 333.3 nM	3.02	–
E31 [11], 1000 nM	4.3	–
E31 [11], 3000 nM	4.23	–
E34 [5], 4.1 nM	–	0.494
E34 [5], 12.3 nM	–	0.492
E34 [5], 37 nM	–	0.608
E34 [5], 111.1 nM	–	0.446
E34 [5], 333.3 nM	–	0.509
E34 [5], 1000 nM	–	0.496
E34 [5], 3000 nM	–	0.569
E34 [12], 4.1 nM	3.37	–
E34 [12], 12.3 nM	3.46	–
E34 [12], 37 nM	1.84	–
E34 [12], 111.1 nM	2.93	–
E34 [12], 333.3 nM	2.95	–
E34 [12], 1000 nM	3.66	–
E34 [12], 3000 nM	3.13	–
E57 [6], 4.1 nM	–	0.14
E57 [6], 12.3 nM	–	0.165
E57 [6], 37 nM	–	0.148
E57 [6], 111.1 nM	–	0.157
E57 [6], 333.3 nM	–	0.144
E57 [6], 1000 nM	–	0.136
E57 [6], 3000 nM	–	0.13
E57 [13], 4.1 nM	6.51	–
E57 [13], 12.3 nM	6.72	–
E57 [13], 37 nM	6.63	–
E57 [13], 111.1 nM	5.99	–
E57 [13], 333.3 nM	6.28	–
E57 [13], 1000 nM	6.33	–
E57 [13], 3000 nM	5.89	–
FT3469 [7], 4.1 nM	–	0.616
FT3469 [7], 12.3 nM	–	0.73
FT3469 [7], 37 nM	–	0.51
FT3469 [7], 111.1 nM	–	0.563
FT3469 [7], 333.3 nM	–	0.489
FT3469 [7], 1000 nM	–	0.442
FT3469 [7], 3000 nM	–	0.445
FT3469 [14], 4.1 nM	1.58	–
FT3469 [14], 12.3 nM	1.79	–
FT3469 [14], 37 nM	2.15	–
FT3469 [14], 111.1 nM	1.67	–
FT3469 [14], 333.3 nM	2.41	–
FT3469 [14], 1000 nM	3.08	–
FT3469 [14], 3000 nM	3.19	–
